The numbers were not newly measured in patent publication US20250375417A1, “OREXIN RECEPTOR 2 (OX2R) AGONIST FOR USE IN NARCOLEPSY TYPE 1 (NT1)” (TAKEDA PHARMACEUTICAL COMPANY LIMITED, priority 2024, published 2025), which cites them from elsewhere.

Each structure is given as a SMILES string.

For the data set the following is noted: phase 2 clinical studies of firazorexton; cited from earlier work.

Turning to `CC(C)(O)C(=O)N1CC[C@H](NS(C)(=O)=O)[C@@H]1Cc1cccc(-c2cc(F)cc(F)c2)c1F` [firazorexton], the Liver toxicity result is recorded as “liver toxicity was observed”.
